According to publication PMC8800111 (The Journal of Biological Chemistry, 2021):

Tests used:
Type in all cases: cell-based
[1] = target: proteins of U3A human fibrosarcoma cells (4462 proteins detected) (Homo sapiens, UniProt Q6P2Q9); settings: protein PRPF8; soluble abundance after heat, U3A cells
[2] = target: proteins of U3A human fibrosarcoma cells (4462 proteins detected) (Homo sapiens, UniProt P06756); settings: protein ITGAV; soluble abundance after heat, U3A cells
[3] = target: proteins of U3A human fibrosarcoma cells (4462 proteins detected) (Homo sapiens, UniProt Q9Y221); settings: protein NIP7; soluble abundance after heat, U3A cells
[4] = target: proteins of U3A human fibrosarcoma cells (4462 proteins detected) (Homo sapiens, UniProt Q9NRL2); settings: protein BAZ1A; U3A cells
[5] = target: proteins of U3A human fibrosarcoma cells (4462 proteins detected) (Homo sapiens, UniProt P00519); settings: protein ABL1; U3A cells
[6] = target: proteins of U3A human fibrosarcoma cells (4462 proteins detected) (Homo sapiens, UniProt P51114); settings: protein FXR1; U3A cells
[7] = target: proteins of U3A human fibrosarcoma cells (4462 proteins detected) (Homo sapiens, UniProt Q8TF74); settings: protein WIPF2, U3A cells
[8] = target: proteins of U3A human fibrosarcoma cells (4462 proteins detected) (Homo sapiens, UniProt Q9UHN1); settings: protein POLG2; soluble abundance after heat, U3A cells
[9] = target: proteins of U3A human fibrosarcoma cells (4462 proteins detected) (Homo sapiens, UniProt P39748); settings: protein FEN1; U3A, 10 μM, 2 h
[10] = target: proteins of U3A human fibrosarcoma cells (4462 proteins detected) (Homo sapiens, UniProt Q9P2R7); settings: protein SUCLA2; U3A, 10 μM, 2 h
[11] = target: proteins of U3A human fibrosarcoma cells (4462 proteins detected) (Homo sapiens, UniProt P50990); settings: protein CCT8; U3A cells
[12] = target: proteins of U3A human fibrosarcoma cells (4462 proteins detected) (Homo sapiens, UniProt Q6PD74); settings: protein AAGAB; U3A cells
[13] = target: proteins of U3A human fibrosarcoma cells (4462 proteins detected) (Homo sapiens, UniProt O00232); settings: protein PSMD12; U3A cells
[14] = target: proteins of U3A human fibrosarcoma cells (4462 proteins detected) (Homo sapiens, UniProt Q15366); settings: protein PCBP2; U3A cells
[15] = target: proteins of U3A human fibrosarcoma cells (4462 proteins detected) (Homo sapiens, UniProt P25440); settings: protein BRD2; soluble abundance after heat, U3A cells
[16] = target: proteins of U3A human fibrosarcoma cells (4462 proteins detected) (Homo sapiens, UniProt Q05397); settings: protein PTK2; U3A cells
[17] = target: proteins of U3A human fibrosarcoma cells (4462 proteins detected) (Homo sapiens, UniProt Q8N465); settings: protein D2HGDH; soluble abundance after heat, U3A cells
[18] = target: proteins of U3A human fibrosarcoma cells (4462 proteins detected) (Homo sapiens, UniProt Q9H2U1); settings: protein DHX36, U3A cells
[19] = target: proteins of U3A human fibrosarcoma cells (4462 proteins detected) (Homo sapiens, UniProt Q8WTT2); settings: protein NOC3L; U3A cells
[20] = target: proteins of U3A human fibrosarcoma cells (4462 proteins detected) (Homo sapiens, UniProt P13693); settings: protein TPT1, U3A cells
[21] = target: proteins of U3A human fibrosarcoma cells (4462 proteins detected) (Homo sapiens, UniProt Q9UIV1); settings: protein CNOT7; U3A, 10 μM, 2 h
[22] = target: proteins of U3A human fibrosarcoma cells (4462 proteins detected) (Homo sapiens, UniProt Q08623); settings: protein HDHD1, U3A cells
[23] = target: proteins of U3A human fibrosarcoma cells (4462 proteins detected) (Homo sapiens, UniProt Q9UL16); settings: protein CFAP45, U3A cells
[24] = target: proteins of U3A human fibrosarcoma cells (4462 proteins detected) (Homo sapiens, UniProt Q15365); settings: protein PCBP1; U3A cells
[25] = target: proteins of U3A human fibrosarcoma cells (4462 proteins detected) (Homo sapiens, UniProt Q9NXV2); settings: protein KCTD5, U3A cells
[26] = target: proteins of U3A human fibrosarcoma cells (4462 proteins detected) (Homo sapiens, UniProt Q8NFH4); settings: protein NUP37, U3A cells
[27] = target: proteins of U3A human fibrosarcoma cells (4462 proteins detected) (Homo sapiens, UniProt Q13162); settings: protein PRDX4; U3A cells
[28] = target: proteins of U3A human fibrosarcoma cells (4462 proteins detected) (Homo sapiens, UniProt Q9Y266); settings: protein NUDC; U3A cells
[29] = target: proteins of U3A human fibrosarcoma cells (4462 proteins detected) (Homo sapiens, UniProt P00374); settings: 10 μM, 2 h
[30] = target: proteins of U3A human fibrosarcoma cells (4462 proteins detected) (Homo sapiens, UniProt Q96CB9); settings: protein NSUN4; U3A cells

Sequence of proteins of U3A human fibrosarcoma cells (4462 proteins detected) (Homo sapiens, UniProt P00374) (P00374 whole entry): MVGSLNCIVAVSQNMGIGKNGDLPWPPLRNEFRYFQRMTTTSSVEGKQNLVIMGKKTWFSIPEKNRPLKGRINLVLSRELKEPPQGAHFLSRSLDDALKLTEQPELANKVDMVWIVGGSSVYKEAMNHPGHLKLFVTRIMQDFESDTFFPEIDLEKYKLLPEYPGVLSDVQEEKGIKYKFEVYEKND
Sequence of proteins of U3A human fibrosarcoma cells (4462 proteins detected) (Homo sapiens, UniProt Q9Y266) (Q9Y266 whole entry): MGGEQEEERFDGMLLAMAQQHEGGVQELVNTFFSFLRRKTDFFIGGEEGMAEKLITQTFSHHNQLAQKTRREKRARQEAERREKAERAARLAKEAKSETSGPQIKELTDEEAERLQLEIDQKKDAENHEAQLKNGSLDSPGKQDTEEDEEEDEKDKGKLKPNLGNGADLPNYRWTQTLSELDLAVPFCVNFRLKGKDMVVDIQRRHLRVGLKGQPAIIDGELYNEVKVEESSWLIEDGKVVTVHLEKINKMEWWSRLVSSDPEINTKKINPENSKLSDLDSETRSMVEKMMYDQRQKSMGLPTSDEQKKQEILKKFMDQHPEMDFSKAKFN
Sequence of proteins of U3A human fibrosarcoma cells (4462 proteins detected) (Homo sapiens, UniProt O00232) (O00232 whole entry): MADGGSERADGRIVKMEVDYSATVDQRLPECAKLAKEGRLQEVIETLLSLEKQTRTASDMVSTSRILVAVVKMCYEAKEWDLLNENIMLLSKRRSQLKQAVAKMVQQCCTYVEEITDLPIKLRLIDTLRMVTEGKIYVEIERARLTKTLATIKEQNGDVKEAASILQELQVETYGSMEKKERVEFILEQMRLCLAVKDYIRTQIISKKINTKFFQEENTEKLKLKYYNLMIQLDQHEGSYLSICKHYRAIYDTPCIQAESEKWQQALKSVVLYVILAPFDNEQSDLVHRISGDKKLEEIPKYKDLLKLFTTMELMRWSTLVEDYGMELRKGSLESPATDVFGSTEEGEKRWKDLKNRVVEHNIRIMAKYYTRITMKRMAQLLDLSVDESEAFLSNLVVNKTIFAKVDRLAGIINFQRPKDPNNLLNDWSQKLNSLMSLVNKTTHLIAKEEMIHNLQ
Sequence of proteins of U3A human fibrosarcoma cells (4462 proteins detected) (Homo sapiens, UniProt P13693) (P13693 whole entry): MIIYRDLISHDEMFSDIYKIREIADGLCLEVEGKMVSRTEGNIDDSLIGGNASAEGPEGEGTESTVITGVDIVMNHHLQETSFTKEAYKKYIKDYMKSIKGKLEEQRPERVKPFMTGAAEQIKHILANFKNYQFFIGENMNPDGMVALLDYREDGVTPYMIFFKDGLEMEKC
Sequence of proteins of U3A human fibrosarcoma cells (4462 proteins detected) (Homo sapiens, UniProt P39748) (P39748 whole entry): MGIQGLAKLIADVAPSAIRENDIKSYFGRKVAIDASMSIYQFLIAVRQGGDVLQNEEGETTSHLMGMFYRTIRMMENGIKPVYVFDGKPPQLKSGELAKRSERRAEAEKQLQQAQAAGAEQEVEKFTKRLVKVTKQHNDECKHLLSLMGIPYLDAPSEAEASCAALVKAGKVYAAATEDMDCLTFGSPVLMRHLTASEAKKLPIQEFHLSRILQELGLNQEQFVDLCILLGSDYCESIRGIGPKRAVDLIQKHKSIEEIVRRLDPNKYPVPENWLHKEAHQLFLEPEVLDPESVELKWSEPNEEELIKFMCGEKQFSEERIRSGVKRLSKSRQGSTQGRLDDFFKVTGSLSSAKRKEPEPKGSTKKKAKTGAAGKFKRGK
Sequence of proteins of U3A human fibrosarcoma cells (4462 proteins detected) (Homo sapiens, UniProt Q9UIV1) (Q9UIV1 whole entry): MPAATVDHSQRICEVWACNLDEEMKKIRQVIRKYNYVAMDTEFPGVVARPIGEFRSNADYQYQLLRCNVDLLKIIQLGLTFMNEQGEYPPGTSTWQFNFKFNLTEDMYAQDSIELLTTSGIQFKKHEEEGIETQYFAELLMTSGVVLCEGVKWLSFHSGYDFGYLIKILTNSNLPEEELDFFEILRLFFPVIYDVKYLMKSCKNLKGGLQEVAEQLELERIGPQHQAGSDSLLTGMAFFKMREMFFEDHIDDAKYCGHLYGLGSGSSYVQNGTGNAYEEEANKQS
Sequence of proteins of U3A human fibrosarcoma cells (4462 proteins detected) (Homo sapiens, UniProt Q8TF74) (Q8TF74 whole entry): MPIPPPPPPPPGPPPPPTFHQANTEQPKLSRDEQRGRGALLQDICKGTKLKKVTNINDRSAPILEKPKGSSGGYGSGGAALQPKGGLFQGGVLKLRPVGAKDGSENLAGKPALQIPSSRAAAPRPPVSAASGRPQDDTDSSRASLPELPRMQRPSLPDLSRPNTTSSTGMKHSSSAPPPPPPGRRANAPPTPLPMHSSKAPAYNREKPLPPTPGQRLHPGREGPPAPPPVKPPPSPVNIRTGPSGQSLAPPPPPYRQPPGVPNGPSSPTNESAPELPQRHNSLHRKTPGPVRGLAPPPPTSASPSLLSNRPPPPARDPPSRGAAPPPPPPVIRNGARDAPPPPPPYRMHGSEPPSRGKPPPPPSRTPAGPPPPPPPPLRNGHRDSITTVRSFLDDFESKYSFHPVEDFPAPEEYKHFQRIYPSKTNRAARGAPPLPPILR
Sequence of proteins of U3A human fibrosarcoma cells (4462 proteins detected) (Homo sapiens, UniProt Q9NRL2) (Q9NRL2 whole entry): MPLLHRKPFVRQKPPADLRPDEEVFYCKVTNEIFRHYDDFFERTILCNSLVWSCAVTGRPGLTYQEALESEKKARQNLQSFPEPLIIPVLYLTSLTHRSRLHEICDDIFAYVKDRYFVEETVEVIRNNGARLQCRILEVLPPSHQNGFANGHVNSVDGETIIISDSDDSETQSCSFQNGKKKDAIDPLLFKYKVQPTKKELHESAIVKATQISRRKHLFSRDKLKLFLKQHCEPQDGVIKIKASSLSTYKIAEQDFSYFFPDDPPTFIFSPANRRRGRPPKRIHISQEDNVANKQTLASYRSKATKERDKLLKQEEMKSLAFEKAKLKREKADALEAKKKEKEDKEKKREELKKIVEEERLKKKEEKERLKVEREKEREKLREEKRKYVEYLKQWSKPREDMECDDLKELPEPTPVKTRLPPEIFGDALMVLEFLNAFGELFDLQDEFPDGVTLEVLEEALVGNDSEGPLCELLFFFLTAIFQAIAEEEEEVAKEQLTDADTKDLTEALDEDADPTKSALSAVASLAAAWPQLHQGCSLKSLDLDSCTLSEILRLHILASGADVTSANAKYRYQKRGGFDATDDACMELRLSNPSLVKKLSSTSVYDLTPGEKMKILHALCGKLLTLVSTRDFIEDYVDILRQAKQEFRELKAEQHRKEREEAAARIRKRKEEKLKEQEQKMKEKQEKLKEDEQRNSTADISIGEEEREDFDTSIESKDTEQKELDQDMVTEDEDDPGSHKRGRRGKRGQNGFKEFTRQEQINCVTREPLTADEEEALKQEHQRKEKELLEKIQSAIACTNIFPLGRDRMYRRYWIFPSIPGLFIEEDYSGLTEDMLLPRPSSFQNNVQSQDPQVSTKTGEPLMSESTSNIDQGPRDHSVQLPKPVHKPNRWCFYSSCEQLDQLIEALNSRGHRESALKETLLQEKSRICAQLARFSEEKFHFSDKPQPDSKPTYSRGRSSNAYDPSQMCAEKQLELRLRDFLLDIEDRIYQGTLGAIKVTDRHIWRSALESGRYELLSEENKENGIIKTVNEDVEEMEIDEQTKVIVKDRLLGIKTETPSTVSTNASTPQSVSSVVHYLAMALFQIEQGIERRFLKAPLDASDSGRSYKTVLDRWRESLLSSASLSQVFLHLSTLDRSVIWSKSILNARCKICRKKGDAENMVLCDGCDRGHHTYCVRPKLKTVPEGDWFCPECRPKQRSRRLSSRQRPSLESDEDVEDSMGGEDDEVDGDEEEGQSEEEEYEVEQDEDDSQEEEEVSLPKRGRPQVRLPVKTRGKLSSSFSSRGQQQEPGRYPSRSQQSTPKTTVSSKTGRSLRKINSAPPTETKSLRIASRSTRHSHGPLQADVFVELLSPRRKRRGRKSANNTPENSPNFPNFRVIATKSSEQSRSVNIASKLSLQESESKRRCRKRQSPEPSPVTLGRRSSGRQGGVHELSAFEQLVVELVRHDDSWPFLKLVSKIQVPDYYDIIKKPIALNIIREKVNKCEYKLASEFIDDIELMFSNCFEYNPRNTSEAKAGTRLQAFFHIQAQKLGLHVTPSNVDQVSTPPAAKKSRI
Sequence of proteins of U3A human fibrosarcoma cells (4462 proteins detected) (Homo sapiens, UniProt Q9H2U1) (Q9H2U1 whole entry): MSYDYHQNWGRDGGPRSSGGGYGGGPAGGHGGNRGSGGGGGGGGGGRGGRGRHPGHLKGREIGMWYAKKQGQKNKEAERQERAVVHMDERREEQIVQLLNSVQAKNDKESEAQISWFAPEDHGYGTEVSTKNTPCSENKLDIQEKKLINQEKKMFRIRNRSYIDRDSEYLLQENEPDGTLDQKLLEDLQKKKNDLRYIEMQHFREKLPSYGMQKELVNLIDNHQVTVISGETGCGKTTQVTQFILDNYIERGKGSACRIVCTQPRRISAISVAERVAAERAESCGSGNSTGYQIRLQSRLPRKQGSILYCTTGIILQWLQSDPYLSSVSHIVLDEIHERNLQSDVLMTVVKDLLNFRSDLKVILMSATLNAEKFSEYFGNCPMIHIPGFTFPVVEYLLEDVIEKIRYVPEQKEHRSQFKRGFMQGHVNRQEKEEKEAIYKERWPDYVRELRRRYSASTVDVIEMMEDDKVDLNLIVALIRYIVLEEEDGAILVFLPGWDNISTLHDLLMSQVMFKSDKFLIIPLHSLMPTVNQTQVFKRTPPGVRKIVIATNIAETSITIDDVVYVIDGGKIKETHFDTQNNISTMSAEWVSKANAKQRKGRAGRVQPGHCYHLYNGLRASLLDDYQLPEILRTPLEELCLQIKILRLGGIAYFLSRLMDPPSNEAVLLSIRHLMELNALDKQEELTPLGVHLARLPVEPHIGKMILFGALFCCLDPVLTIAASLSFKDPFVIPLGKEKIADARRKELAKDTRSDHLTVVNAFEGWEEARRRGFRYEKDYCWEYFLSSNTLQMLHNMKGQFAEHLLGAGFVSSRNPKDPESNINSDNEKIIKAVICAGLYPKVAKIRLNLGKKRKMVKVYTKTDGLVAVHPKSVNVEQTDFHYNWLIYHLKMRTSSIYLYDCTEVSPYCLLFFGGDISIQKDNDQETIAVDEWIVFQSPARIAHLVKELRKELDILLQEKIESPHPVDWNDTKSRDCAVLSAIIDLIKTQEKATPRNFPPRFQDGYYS
Sequence of proteins of U3A human fibrosarcoma cells (4462 proteins detected) (Homo sapiens, UniProt Q9Y221) (Q9Y221 whole entry): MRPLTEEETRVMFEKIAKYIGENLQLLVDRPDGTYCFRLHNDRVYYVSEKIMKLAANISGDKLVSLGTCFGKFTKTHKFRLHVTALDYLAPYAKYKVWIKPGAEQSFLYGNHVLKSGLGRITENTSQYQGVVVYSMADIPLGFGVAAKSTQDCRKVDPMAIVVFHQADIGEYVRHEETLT

CCc1nc(N)nc(N)c1-c1ccc(Cl)cc1 [pyrimethamine]
Log2 (PYR/DMSO) [1]: 0.14
Log2 (PYR/DMSO) [2]: 0.14
Log2 (PYR/DMSO) [3]: 0.14
Log2 (PYR/DMSO) [4]: 0.19
Log2 (PYR/DMSO) [5]: 0.17
Log2 (PYR/DMSO) [6]: 0.17
Log2 (PYR/DMSO) [7]: -0.05
Log2 (PYR/DMSO) [8]: 0.15
Log2 (PYR/DMSO), FEN1 [9]: 0.23
Log2 (PYR/DMSO), SUCLA2 [10]: 0.23
Log2 (PYR/DMSO) [11]: 0.16
Log2 (PYR/DMSO) [12]: 0.18
Log2 (PYR/DMSO) [13]: 0.18
Log2 (PYR/DMSO) [14]: 0.18
Log2 (PYR/DMSO) [15]: 0.14
Log2 (PYR/DMSO) [16]: 0.16
Log2 (PYR/DMSO) [17]: 0.15
Log2 (PYR/DMSO) [18]: -0.03
Log2 (PYR/DMSO) [19]: 0.16
Log2 (PYR/DMSO) [20]: -0.05
Log2 (PYR/DMSO), CNOT7 [21]: -0.24
Log2 (PYR/DMSO) [22]: -0.04
Log2 (PYR/DMSO) [23]: -0.04
Log2 (PYR/DMSO) [24]: 0.18
Log2 (PYR/DMSO) [25]: -0.04
Log2 (PYR/DMSO) [26]: -0.04
Log2 (PYR/DMSO) [27]: 0.16
Log2 (PYR/DMSO) [28]: 0.16
increased abundance of DHFR in the soluble fraction ([29]; U3A cells, vs vehicle): 1.7 fold
Log2 (PYR/DMSO), DHFR ([29]; protein DHFR, U3A): 0.80
Log2 (PYR/DMSO) [30]: 0.16
